Reference: patent US20090214578A1, “Immunostimulatory Single-Stranded Ribonucleic Acid with Phosphodiester Backbone” (priority 2005, published 2009)
Strand notation (5' to 3'): a small letter for the sugar, then the base; units joined by * are phosphorothioate-linked, units joined directly phosphodiester-linked; [ ] holds rarer units or linkages, { } end groups; capitals alone tell only the bases. r = 2'-OH (RNA)

Assays:
[1] = tested on: TLR9-deficient mDC; assay: IL-12p40 production by TLR9-deficient mDC; assay type: cell-based, murine
Excerpt: (§1) To further investigate the role of TLR9 in the recognition of PD ssRNA, various RNA sequences, such as RNA41 (5′-[…]-3′; SEQ ID NO:4) and RNA42 (5′-[…]-3′; SEQ ID NO:5) that have been previously described as not active in murine cells when synthesized with a PTO backbone (Heil, Hemmi et al. 2004), were synthesized.

[2] = tested on: human PBMCs; assay: Stimulatory capacity of ORN with PTO or PD backbone in human PBMCs; assay type: cell-based
Excerpt: as §1

[3] = tested on: murine cells; assay: Stimulatory capacity of ORN with PTO or PD backbone in murine cells; assay type: cell-based; conditions: TLR7-independent fashion
Excerpt: as §1

[4] = tested on: murine cells; conditions: synthesized with a PTO backbone; Heil, Hemmi et al. 2004; cited from earlier work
[5] = tested on: pDC, TLR7-single deficient cells; assay: Recognition of ssRNA by pDC, TLR7-single deficient cells; assay type: cell-based, murine
Excerpt: as §1

[6] = tested on: Wild-type FLT3-L-induced DCs; assay: IL-12 secretion of siRNA-treated wild-type FLT3-L-induced DCs on ssRNA stimulation; assay type: cell-based, murine; conditions: wild-type FLT3-L-induced DCs treated with mTLR8-specific siRNA; for reduction in IL-12 secretion in mTLR8-specific siRNA-treated cells: then stimulated with the ORN
Excerpt: (§2) The reduction in RNA63-driven immune activation correlated with siRNA-driven downregulation of mTLR8 RNA.

[7] = tested on: pDC, wild-type cells; assay: Recognition of ssRNA by pDC, wild-type cells; assay type: cell-based, murine; conditions: for Recognition by pDC: wild-type cells
Excerpt: as §1

[8] = tested on: pDC, TLR9-single deficient cells; assay: Recognition of ssRNA by pDC, TLR9-single deficient cells; assay type: cell-based, murine
Excerpt: as §1

[9] = tested on: TLR7/TLR9 double deficient GM-CSF-derived DCs; assay: ssRNA stimulation of TLR7/TLR9 double deficient GM-CSF-derived DCs; assay type: cell-based, mice
Excerpt: (§3) Since the ssRNA-driven TLR7-independent immune stimulation is dependent on MyD88 and endosomal maturation, it was hypothesized that other intracellular TLRs are involved. TLR3 seems a poor candidate for the recognition of ssRNA since it mainly relies on the adaptor molecule TRIF and not MyD88 (Hoebe, Du et al. 2003). Nevertheless, to rule out TLR3 as receptor for ssRNA, TLR3- and TLR7-deficient mice were crossed to obtain TLR3/TLR7 double deficient mice, and immune cells from these mice were tested for ssRNA stimulation. […] TLR7/TLR9 double deficient mice were also generated to investigate the involvement of TLR9 in RNA63 recognition.

[10] = tested on: TLR7-deficient FLT3-L-induced DCs; assay: RNA63-induced activation of siRNA-transfected TLR7-deficient FLT3-L-induced DCs; assay type: cell-based, murine
Excerpt: as §2

[11] = tested on: TLR7/TLR9 double deficient sorted mDCs; assay: ssRNA stimulation of TLR7/TLR9 double deficient sorted mDCs; assay type: cell-based, mice
Excerpt: as §3

[12] = tested on: TLR3/TLR7 double deficient FLT3-L-induced DCs; assay: ssRNA stimulation of TLR3/TLR7 double deficient FLT3-L-induced DCs; assay type: cell-based, mice
Excerpt: as §3

[13] = tested on: M-CSF-derived macrophages from wild-type mice; assay: IL-12p40 ELISA, M-CSF-derived macrophages, wild-type; assay type: cell-based; conditions: with DOTAP, 24 hours, FIG. 5
Protocol: (§4) M-CSF-derived macrophages and GM-CSF-derived dendritic cells were prepared from wild-type and TLR7−/− mice and cultured for 24 hours in the presence of RNA63 PD plus DOTAP, RNA63 PTO plus DOTAP. LPS, R-848, CpG-ODN 1668, CpG-ODN 2216, DOTAP alone, or medium alone. Culture supernatants were then collected and analyzed using ELISA for IL-12p40. Data are presented as mean±SEM.

[14] = tested on: MyD88−/− dendritic cells; assay: IL-12p40 ELISA, FLT3-L-induced dendritic cells, MyD88−/−; assay type: cell-based, mice; conditions: with DOTAP, 24 hours, FIG. 6
Protocol: (§5) FLT3-L-induced dendritic cells were separately prepared from wild-type, TLR7−/−, and MyD88−/− mice and cultured for 24 hours in the presence of RNA63 PD or RNA63 PTO, each with DOTAP, as in Example 2. After 24 hours incubation, cells were collected and analyzed by ELISA for IL-12p40 and by FACS for CD69.

[15] = tested on: peripheral blood mononuclear cells from wild-type mice; assay: IL-12p40 ELISA on supernatants of peripheral blood mononuclear cells, wild-type mice; assay type: cell-based; conditions: added with DOTAP, 24 hours, FIG. 2
Protocol: (§6) Peripheral blood mononuclear cells were isolated from wild-type and TLR7−/− mice, transferred into suitable growth medium, and then aliquoted separately into individual wells of multiwell culture plates. The following agents were added to individual wells of cells: RNA63 PD, a single-stranded ORN having a nucleotide sequence provided as 5′-CAGGUCUGUGAU-3′ (SEQ ID NO:1), in which all internucleotide linkages are phosphodiester except for a phosphorothioate linkage between the A and U at the 3′ end of the ORN; RNA63 PTO, a single-stranded ORN having the same nucleotide sequence as SEQ ID NO: 1, in which every internucleotide linkage is phosphorothioate; CpG-ODN 1668, an oligodeoxynucleotide having a nucleotide sequence provided as 5′-[…]-3′ (SEQ ID NO:2); DOTAP alone; R-848; RNA63 PTO plus DOTAP; RNA63 PD plus DOTAP; and medium alone. Cells were maintained in culture for 24 hours, and then supernatants from individual wells collected and analyzed using enzyme-linked immunosorbent assay (ELISA) specific for IL-12p40. Data are presented as mean±SEM.

[16] = tested on: wild-type FLT3-L-induced dendritic cells; assay: FACS for CD69 on FLT3-L-induced dendritic cells, wild-type; assay type: cell-based, mice; conditions: with DOTAP, 24 hours, FIG. 4
Protocol: (§7) FLT3-L-induced dendritic cells were prepared from wild-type and TLR7−/− mice and cultured for 24 hours in the presence of RNA63 PD or RNA63 PTO, each with DOTAP, as in Example 2. After 24 hours incubation, cells were collected and analyzed by FACS for CD69.

[17] = tested on: peripheral blood mononuclear cells from TLR7−/− mice; assay: IL-12p40 ELISA on supernatants of peripheral blood mononuclear cells, TLR7−/− mice; assay type: cell-based; conditions: TLR 7−/− cells, added with DOTAP, 24 hours, FIG. 2
Protocol: as §6

[18] = tested on: TLR7−/− FLT3-L-induced dendritic cells; assay: FACS for CD69 on FLT3-L-induced dendritic cells, TLR7−/−; assay type: cell-based, mice; conditions: with DOTAP, 24 hours, FIG. 4
Protocol: as §7

[19] = tested on: wild-type FLT3-L-induced dendritic cells; assay: Cytokine ELISA (IL-12p40, IL-6, IFN-α), FLT3-L-induced dendritic cells, wild-type; assay type: cell-based, mice; conditions: with DOTAP, 24 hours; for IL-12p40 induction: FIG. 3A; for IL-6 induction: FIG. 3B; for IFN-α induction: FIG. 3C
Protocol: (§8) FLT3-L-induced dendritic cells were prepared from wild-type and TLR7−/− mice and cultured in the presence of varied amounts of RNA63 PD or RNA63 PTO, each with DOTAP. After 24 hours incubation, supernatants were collected and analyzed by ELISA for IL-12p40, IL-6, and IFN-α. LPS, R-848, CpG-ODN 1668, CpG-ODN 2216 (5′-GGGGGACGATCGTCGGGGG-3′, SEQ ID NO:3), DOTAP alone, and medium alone were run as controls. Data are presented as mean±SEM.

[20] = tested on: TLR7−/− GM-CSF-derived dendritic cells; assay: IL-12p40 ELISA, GM-CSF-derived dendritic cells, TLR7−/−; assay type: cell-based, mice; conditions: with DOTAP, 24 hours, FIG. 5
Protocol: as §4

[21] = tested on: GM-CSF-derived dendritic cells from wild-type mice; assay: IL-12p40 ELISA, GM-CSF-derived dendritic cells, wild-type; assay type: cell-based; conditions: with DOTAP, 24 hours, FIG. 5
Protocol: as §4

[22] = tested on: MyD88−/− dendritic cells; assay: FACS for CD69, FLT3-L-induced dendritic cells, MyD88−/−; assay type: cell-based, mice; conditions: with DOTAP, 24 hours, FIG. 6
Protocol: as §5

[23] = tested on: TLR7−/− FLT3-L-induced dendritic cells; assay: Cytokine ELISA (IL-12p40, IL-6, IFN-α), FLT3-L-induced dendritic cells, TLR7−/−; assay type: cell-based, mice; conditions: for IFN-α induction / IL-6 induction / IL-12p40 induction: with DOTAP, 24 hours
Protocol: as §8

[24] = tested on: TLR7−/− M-CSF-derived macrophages; assay: IL-12p40 ELISA, M-CSF-derived macrophages, TLR7−/−; assay type: cell-based, mice; conditions: with DOTAP, 24 hours, FIG. 5
Protocol: as §4

[25] = tested on: TLR7-deficient mDC; assay: IL-12p40 production by TLR7-deficient mDC; assay type: cell-based, murine; conditions: TLR7-single deficient mDC
Excerpt: as §1

## 5′-ACCCAUCUAUUAUAUAACUC-3′ (listed as RNA, chemistry not fully specified) [RNA42 PD]
[1]
  IL-12p40 production: failed to produce IL-12p40
[2]
  IFN-α stimulation: no IFN-α
  TNF-α stimulation: stimulate
[3]
  IFN-α stimulation: stimulate
  IL-6 stimulation: stimulate
  IL-12p40 stimulation: stimulate

## 5′-ACCCAUCUAUUAUAUAACUC-3′ (listed as RNA, chemistry not fully specified) [RNA42, PTO in the cited result, probably PD in pDC and siRNA tests]
[4]
  Activity in murine cells: not active
[5]
  Response of pDC: failed to respond
[6]
  reduction in IL-12 secretion in mTLR8-specific siRNA-treated cells: 50%
[7]
  Recognition by pDC: also recognized
[8]
  Response of pDC: failed to respond

## 5′-CAGGUCUGUGAU-3′ (listed as RNA, chemistry not fully specified) [RNA63]
[9]
  CD69 upregulation: failed
  IL-12p40 production: failed to produce IL-12p40
[10]
  RNA63-induced IL-12p40 production in DCs treated with mTLR8-specific siRNA: strong reduction
[10]; RNA63 stimulation
  activation markers such as CD40 in DCs treated with mTLR8-specific siRNA: downregulation
[11]
  CD69 upregulation: failed
  IL-12p40 production: failed to produce IL-12p40
[12]
  RNA63-driven CD69 upregulation: still functional
  RNA63-driven IL-12p40 production: still functional

## 5′-CAGGUCUGUGAU-3′ [RNA63 PD] (one 3' phosphorothioate linkage, chemistry not fully specified)
[13]
  IL-12p40 induction: induced significant amounts of IL-12p40
[14]
  induction of IL-12p40: absent
[15]
  IL-12p40 induction: induced IL-12p40
[16]
  CD69 induction: induced significant amounts of CD69
[17]
  IL-12p40 induction: induced IL-12p40
[18]
  CD69 induction: induced CD69
[19]
  IL-12p40 induction: induced significant amounts
  IL-6 induction: induced significant amounts
  IFN-α induction: induced significant amounts
[20]
  IL-12p40 induction: induced significant amounts of IL-12p40
[21]
  IL-12p40 induction: induced significant amounts of IL-12p40
[22]
  induction of CD69: absent
[23]; varied amounts of ORN with DOTAP
  Dependence of the amount of IL-12p40 induced on concentration: varied in proportion to the concentration
[23]
  IFN-α induction: albeit less strongly
  IL-6 induction: albeit less strongly
  IL-12p40 induction: induced IL-112p40
[24]
  IL-12p40 induction: induced significant amounts of IL-12p40

## 5′-CAGGUCUGUGAU-3′ [RNA63 PTO] (rC*rA*rG*rG*rU*rC*rU*rG*rU*rG*rA*rU) [reference compound]
[13]
  IL-12p40 induction: induced significant amounts of IL-12p40
[14]
  induction of IL-12p40: absent
[15]
  IL-12p40 induction: induced IL-12p40
[16]
  CD69 induction: induced significant amounts of CD69
[17]
  IL-12p40 induction: not
[18]
  CD69 induction: not
[19]
  IL-12p40 induction: induced significant amounts
  IL-6 induction: induced significant amounts
  IFN-α induction: induced significant amounts
[20]
  IL-12p40 induction: not
[21]
  IL-12p40 induction: induced significant amounts of IL-12p40
[22]
  induction of CD69: absent
[23]
  IFN-α induction: not
  IL-6 induction: not
  IL-12p40 induction: not
[24]
  IL-12p40 induction: not

## 5′-GCCCGACAGAAGAGAGACAC-3′ (listed as RNA, chemistry not fully specified) [RNA41 PD]
[1]
  IL-12p40 production: failed to produce IL-12p40
[2]
  IFN-α stimulation: no IFN-α
  TNF-α stimulation: stimulate
[3]
  IFN-α stimulation: stimulate
  IL-6 stimulation: stimulate
  IL-12p40 stimulation: stimulate

## 5′-GCCCGACAGAAGAGAGACAC-3′ (listed as RNA, chemistry not fully specified) [RNA41, PTO in the cited result, probably PD in pDC and siRNA tests]
[4]
  Activity in murine cells: not active
[5]
  Response of pDC: failed to respond
[6]
  reduction in IL-12 secretion in mTLR8-specific siRNA-treated cells: 75%
[7]
  Recognition by pDC: also recognized
[8]
  Response of pDC: failed to respond

## 5′-GCCCGUCUGUUGUGUGACUC-3′ [RNA40, reference compound]
[1]
  IL-12p40 production: induced some IL-12p40
[25]
  IL-12p40 production: induced some IL-12p40
[6]
  Influence of mTLR8-specific siRNA on stimulation: not influenced
[7]; GU-rich RNA
  TLR dependence of recognition by pDC: TLR7-dependent fashion
